Laboratory results from ChEMBL document CHEMBL3885861, “Open TG-GATES”.

Species: Rattus norvegicus
Test: Open TG-GATES - Regimen: Single
Type: toxicity, organism-based, Sprague-Dawley
Set-up: regimen Single, gender Male, age 6 weeks
Details: in vivo, po, route gavage; for gamma-GTP / ALP / ALT / AST / BUN / CRE / Ca / Cl / DBIL / GLC / IP / K / LDH / Na / PL / RALB / TBIL / TC / TG / TP: tissue Plasma; for APTT / Bas / Eos / Fbg / Ht / Lym / MCH / MCHC / MCV / Mono / Neu / PT / Plat / RBC / Ret / WBC: tissue Blood; for KIDNEY_L / KIDNEY_R / KIDNEY_TOTAL: tissue Kidney; for LIVER: tissue Liver

Cc1cccc(Nc2cc(Cl)nc(SCC(=O)O)n2)c1C [PIRINIXIC ACID]
gamma-GTP (0 mg/kg, 24 h, dose level Control): 1.2 IU/L | TERMINAL_BW (10 mg/kg, 3 h, dose level Low): 205.8 g | APTT (10 mg/kg, 3 h, dose level Low): 14 s | Bas (10 mg/kg, 3 h, dose level Low): 0% | Eos (10 mg/kg, 3 h, dose level Low): 0.6% | Fbg (10 mg/kg, 3 h, dose level Low): 312.8 mg/dL | Ht (10 mg/kg, 3 h, dose level Low): 39.2% | Lym (10 mg/kg, 3 h, dose level Low): 70.2% | MCH (10 mg/kg, 3 h, dose level Low): 21.2 pg | MCHC (10 mg/kg, 3 h, dose level Low): 34.1% | MCV (10 mg/kg, 3 h, dose level Low): 62.1 fL | Mono (10 mg/kg, 3 h, dose level Low): 2.6% | Neu (10 mg/kg, 3 h, dose level Low): 26% | PT (10 mg/kg, 3 h, dose level Low): 12.2 s | Plat (10 mg/kg, 3 h, dose level Low): 125.7 x10_4/uL | RBC (10 mg/kg, 3 h, dose level Low): 631.2 x10_4/ul | Ret (10 mg/kg, 3 h, dose level Low): 8.2% | WBC (10 mg/kg, 3 h, dose level Low): 82.9 x10_2/uL | KIDNEY_L (10 mg/kg, 3 h, dose level Low): 0.8 g | KIDNEY_R (10 mg/kg, 3 h, dose level Low): 0.9 g | KIDNEY_TOTAL (10 mg/kg, 3 h, dose level Low): 1.7 g | LIVER (10 mg/kg, 3 h, dose level Low): 8.8 g | ALP (10 mg/kg, 3 h, dose level Low): 1833.4 IU/L | ALT (10 mg/kg, 3 h, dose level Low): 49 IU/L | AST (10 mg/kg, 3 h, dose level Low): 74 IU/L | BUN (10 mg/kg, 3 h, dose level Low): 11 mg/dL | CRE (10 mg/kg, 3 h, dose level Low): 0.2 mg/dL | Ca (10 mg/kg, 3 h, dose level Low): 11.2 mg/dL | Cl (10 mg/kg, 3 h, dose level Low): 103.8 meq/L | DBIL (10 mg/kg, 3 h, dose level Low): 0.058 mg/dL | GLC (10 mg/kg, 3 h, dose level Low): 191 mg/dL | IP (10 mg/kg, 3 h, dose level Low): 11.1 mg/dL | K (10 mg/kg, 3 h, dose level Low): 4.1 meq/L | LDH (10 mg/kg, 3 h, dose level Low): 66.4 IU/L | Na (10 mg/kg, 3 h, dose level Low): 139.8 meq/L | PL (10 mg/kg, 3 h, dose level Low): 173 mg/dL | RALB (10 mg/kg, 3 h, dose level Low): 2.6 g/dL | TBIL (10 mg/kg, 3 h, dose level Low): 0.044 mg/dL | TC (10 mg/kg, 3 h, dose level Low): 87.6 mg/dL | TG (10 mg/kg, 3 h, dose level Low): 161 mg/dL | TP (10 mg/kg, 3 h, dose level Low): 5.7 g/dL | gamma-GTP (10 mg/kg, 3 h, dose level Low): 1 IU/L | TERMINAL_BW (10 mg/kg, 6 h, dose level Low): 203.8 g | APTT (10 mg/kg, 6 h, dose level Low): 16 s | Bas (10 mg/kg, 6 h, dose level Low): 0% | Eos (10 mg/kg, 6 h, dose level Low): 0.6% | Fbg (10 mg/kg, 6 h, dose level Low): 266.8 mg/dL | Ht (10 mg/kg, 6 h, dose level Low): 39.9% | Lym (10 mg/kg, 6 h, dose level Low): 76.2% | MCH (10 mg/kg, 6 h, dose level Low): 22 pg | MCHC (10 mg/kg, 6 h, dose level Low): 34.3% | MCV (10 mg/kg, 6 h, dose level Low): 64.2 fL | Mono (10 mg/kg, 6 h, dose level Low): 2% | Neu (10 mg/kg, 6 h, dose level Low): 20.6% | PT (10 mg/kg, 6 h, dose level Low): 12.4 s | Plat (10 mg/kg, 6 h, dose level Low): 111.3 x10_4/uL | RBC (10 mg/kg, 6 h, dose level Low): 622.6 x10_4/ul | Ret (10 mg/kg, 6 h, dose level Low): 7.5% | WBC (10 mg/kg, 6 h, dose level Low): 80 x10_2/uL | KIDNEY_L (10 mg/kg, 6 h, dose level Low): 0.9 g | KIDNEY_R (10 mg/kg, 6 h, dose level Low): 0.8 g | KIDNEY_TOTAL (10 mg/kg, 6 h, dose level Low): 1.7 g | LIVER (10 mg/kg, 6 h, dose level Low): 7.9 g | ALP (10 mg/kg, 6 h, dose level Low): 1630.4 IU/L | ALT (10 mg/kg, 6 h, dose level Low): 43.6 IU/L | AST (10 mg/kg, 6 h, dose level Low): 79.2 IU/L | BUN (10 mg/kg, 6 h, dose level Low): 10 mg/dL | CRE (10 mg/kg, 6 h, dose level Low): 0.2 mg/dL | Ca (10 mg/kg, 6 h, dose level Low): 10.8 mg/dL | Cl (10 mg/kg, 6 h, dose level Low): 106.2 meq/L | DBIL (10 mg/kg, 6 h, dose level Low): 0.028 mg/dL | GLC (10 mg/kg, 6 h, dose level Low): 190.2 mg/dL | IP (10 mg/kg, 6 h, dose level Low): 10.7 mg/dL | K (10 mg/kg, 6 h, dose level Low): 4.1 meq/L | LDH (10 mg/kg, 6 h, dose level Low): 55.8 IU/L | Na (10 mg/kg, 6 h, dose level Low): 141.8 meq/L | RALB (10 mg/kg, 6 h, dose level Low): 2.6 g/dL | TBIL (10 mg/kg, 6 h, dose level Low): 0.038 mg/dL | TC (10 mg/kg, 6 h, dose level Low): 70.8 mg/dL | TG (10 mg/kg, 6 h, dose level Low): 76.8 mg/dL | TP (10 mg/kg, 6 h, dose level Low): 5.5 g/dL | gamma-GTP (10 mg/kg, 6 h, dose level Low): 1.2 IU/L | TERMINAL_BW (10 mg/kg, 9 h, dose level Low): 203.6 g | APTT (10 mg/kg, 9 h, dose level Low): 16.8 s | Bas (10 mg/kg, 9 h, dose level Low): 0% | Eos (10 mg/kg, 9 h, dose level Low): 0.6% | Fbg (10 mg/kg, 9 h, dose level Low): 248.4 mg/dL | Ht (10 mg/kg, 9 h, dose level Low): 38.9% | Lym (10 mg/kg, 9 h, dose level Low): 73.6% | MCH (10 mg/kg, 9 h, dose level Low): 21.7 pg | MCHC (10 mg/kg, 9 h, dose level Low): 34.5% | MCV (10 mg/kg, 9 h, dose level Low): 63 fL | Mono (10 mg/kg, 9 h, dose level Low): 2.2% | Neu (10 mg/kg, 9 h, dose level Low): 23% | PT (10 mg/kg, 9 h, dose level Low): 12.5 s | Plat (10 mg/kg, 9 h, dose level Low): 105.9 x10_4/uL | RBC (10 mg/kg, 9 h, dose level Low): 618 x10_4/ul | Ret (10 mg/kg, 9 h, dose level Low): 7.7% | WBC (10 mg/kg, 9 h, dose level Low): 67.5 x10_2/uL | KIDNEY_L (10 mg/kg, 9 h, dose level Low): 0.9 g | KIDNEY_R (10 mg/kg, 9 h, dose level Low): 0.9 g | KIDNEY_TOTAL (10 mg/kg, 9 h, dose level Low): 1.7 g | LIVER (10 mg/kg, 9 h, dose level Low): 7.8 g | ALP (10 mg/kg, 9 h, dose level Low): 1462.6 IU/L | ALT (10 mg/kg, 9 h, dose level Low): 35.4 IU/L | AST (10 mg/kg, 9 h, dose level Low): 69.2 IU/L | BUN (10 mg/kg, 9 h, dose level Low): 9.4 mg/dL | CRE (10 mg/kg, 9 h, dose level Low): 0.2 mg/dL | Ca (10 mg/kg, 9 h, dose level Low): 10.6 mg/dL | Cl (10 mg/kg, 9 h, dose level Low): 105 meq/L | DBIL (10 mg/kg, 9 h, dose level Low): 0.024 mg/dL | GLC (10 mg/kg, 9 h, dose level Low): 191.2 mg/dL | IP (10 mg/kg, 9 h, dose level Low): 10.6 mg/dL | K (10 mg/kg, 9 h, dose level Low): 3.7 meq/L | LDH (10 mg/kg, 9 h, dose level Low): 53.2 IU/L | Na (10 mg/kg, 9 h, dose level Low): 141.2 meq/L | PL (10 mg/kg, 9 h, dose level Low): 121.8 mg/dL | RALB (10 mg/kg, 9 h, dose level Low): 2.6 g/dL | TBIL (10 mg/kg, 9 h, dose level Low): 0.034 mg/dL | TC (10 mg/kg, 9 h, dose level Low): 63.8 mg/dL | TG (10 mg/kg, 9 h, dose level Low): 76.6 mg/dL | TP (10 mg/kg, 9 h, dose level Low): 5.3 g/dL | gamma-GTP (10 mg/kg, 9 h, dose level Low): 1.4 IU/L | TERMINAL_BW (10 mg/kg, 24 h, dose level Low): 212.4 g | APTT (10 mg/kg, 24 h, dose level Low): 15.7 s | Bas (10 mg/kg, 24 h, dose level Low): 0.2% | Eos (10 mg/kg, 24 h, dose level Low): 0.8% | Fbg (10 mg/kg, 24 h, dose level Low): 217.8 mg/dL | Ht (10 mg/kg, 24 h, dose level Low): 38.2% | Lym (10 mg/kg, 24 h, dose level Low): 77% | MCH (10 mg/kg, 24 h, dose level Low): 21.4 pg | MCHC (10 mg/kg, 24 h, dose level Low): 34.2% | MCV (10 mg/kg, 24 h, dose level Low): 62.6 fL | Mono (10 mg/kg, 24 h, dose level Low): 2.2% | Neu (10 mg/kg, 24 h, dose level Low): 19.6% | PT (10 mg/kg, 24 h, dose level Low): 12.8 s | Plat (10 mg/kg, 24 h, dose level Low): 111.5 x10_4/uL | RBC (10 mg/kg, 24 h, dose level Low): 611 x10_4/ul | Ret (10 mg/kg, 24 h, dose level Low): 7.3% | WBC (10 mg/kg, 24 h, dose level Low): 90.6 x10_2/uL | KIDNEY_L (10 mg/kg, 24 h, dose level Low): 0.9 g | KIDNEY_R (10 mg/kg, 24 h, dose level Low): 0.9 g | KIDNEY_TOTAL (10 mg/kg, 24 h, dose level Low): 1.9 g | LIVER (10 mg/kg, 24 h, dose level Low): 10.8 g | ALP (10 mg/kg, 24 h, dose level Low): 1927 IU/L | ALT (10 mg/kg, 24 h, dose level Low): 47 IU/L | AST (10 mg/kg, 24 h, dose level Low): 71.4 IU/L | BUN (10 mg/kg, 24 h, dose level Low): 13.6 mg/dL | CRE (10 mg/kg, 24 h, dose level Low): 0.2 mg/dL | Ca (10 mg/kg, 24 h, dose level Low): 11 mg/dL | Cl (10 mg/kg, 24 h, dose level Low): 104.2 meq/L | DBIL (10 mg/kg, 24 h, dose level Low): 0.022 mg/dL | GLC (10 mg/kg, 24 h, dose level Low): 191.4 mg/dL | IP (10 mg/kg, 24 h, dose level Low): 8.7 mg/dL | K (10 mg/kg, 24 h, dose level Low): 4 meq/L | LDH (10 mg/kg, 24 h, dose level Low): 57 IU/L | Na (10 mg/kg, 24 h, dose level Low): 143.2 meq/L | PL (10 mg/kg, 24 h, dose level Low): 108.8 mg/dL | RALB (10 mg/kg, 24 h, dose level Low): 2.5 g/dL | TBIL (10 mg/kg, 24 h, dose level Low): 0.034 mg/dL | TC (10 mg/kg, 24 h, dose level Low): 54.8 mg/dL | TG (10 mg/kg, 24 h, dose level Low): 49.4 mg/dL | TP (10 mg/kg, 24 h, dose level Low): 5.1 g/dL | gamma-GTP (10 mg/kg, 24 h, dose level Low): 1 IU/L
